Assays:
[1] = molecular target: Serine/threonine-protein kinase MRCK alpha (Homo sapiens) (UniProt Q5VT25); assay: Selectivity interaction (Kinase panel (DSF assay)) EUB0001559a CDC42BPA
[2] = molecular target: T1, Phosphatidylinositol 4,5-bisphosphate 3-kinase catalytic subunit delta isoform (Homo sapiens) (UniProt O00329); assay: Selectivity interaction (KinomeScan (DiscoverX)) EUB0001079a PIK3CD; conditions: at 1 µM
T1 sequence (whole entry): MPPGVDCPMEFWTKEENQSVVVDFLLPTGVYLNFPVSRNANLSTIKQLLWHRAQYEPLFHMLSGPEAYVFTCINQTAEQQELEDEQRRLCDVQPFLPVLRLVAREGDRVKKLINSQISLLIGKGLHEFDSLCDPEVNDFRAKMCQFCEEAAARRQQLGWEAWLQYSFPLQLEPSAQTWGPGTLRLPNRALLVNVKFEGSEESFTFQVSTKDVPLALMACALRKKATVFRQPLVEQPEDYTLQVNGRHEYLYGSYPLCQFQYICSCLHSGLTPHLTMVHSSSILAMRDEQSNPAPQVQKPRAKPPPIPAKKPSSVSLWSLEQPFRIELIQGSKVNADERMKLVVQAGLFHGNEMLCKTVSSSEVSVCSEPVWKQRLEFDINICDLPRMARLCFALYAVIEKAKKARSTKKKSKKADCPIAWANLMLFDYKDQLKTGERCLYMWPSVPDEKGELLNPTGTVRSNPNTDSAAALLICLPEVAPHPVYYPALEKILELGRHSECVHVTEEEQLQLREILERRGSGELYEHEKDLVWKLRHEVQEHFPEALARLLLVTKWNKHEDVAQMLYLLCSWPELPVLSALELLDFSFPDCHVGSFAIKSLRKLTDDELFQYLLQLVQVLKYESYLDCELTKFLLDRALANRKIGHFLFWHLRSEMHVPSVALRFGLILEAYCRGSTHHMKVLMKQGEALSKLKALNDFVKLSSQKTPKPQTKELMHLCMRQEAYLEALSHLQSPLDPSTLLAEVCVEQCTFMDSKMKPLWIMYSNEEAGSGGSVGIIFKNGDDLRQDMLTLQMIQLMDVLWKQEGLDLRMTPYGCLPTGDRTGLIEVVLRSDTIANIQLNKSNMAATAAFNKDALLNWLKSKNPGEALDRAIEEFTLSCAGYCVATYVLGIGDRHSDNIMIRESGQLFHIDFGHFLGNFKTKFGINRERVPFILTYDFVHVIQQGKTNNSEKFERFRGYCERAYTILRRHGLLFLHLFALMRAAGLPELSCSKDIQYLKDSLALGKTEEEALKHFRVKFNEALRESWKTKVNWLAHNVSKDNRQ

[3] = molecular target: Ribosomal protein S6 kinase alpha-1 (Homo sapiens, UniProt Q15418); assay: Selectivity interaction (Upstate Kinase Profiler service (Millipore)) EUB0000056c RPS6KA1; conditions: at 1 µM
[4] = test system: Epidermal growth factor receptor (Homo sapiens), P00533 [UNDEFINED MUTATION]; assay: Selectivity interaction (ProQinase) EUB0000171b EGFR; conditions: at 1 µM
[5] = molecular target: T2, Ephrin type-B receptor 2 (Homo sapiens) (UniProt P29323); assay: Selectivity interaction (KinomeScan (DiscoverX)) EUB0001619a EPHB2; conditions: at 1 µM
T2 sequence (whole entry): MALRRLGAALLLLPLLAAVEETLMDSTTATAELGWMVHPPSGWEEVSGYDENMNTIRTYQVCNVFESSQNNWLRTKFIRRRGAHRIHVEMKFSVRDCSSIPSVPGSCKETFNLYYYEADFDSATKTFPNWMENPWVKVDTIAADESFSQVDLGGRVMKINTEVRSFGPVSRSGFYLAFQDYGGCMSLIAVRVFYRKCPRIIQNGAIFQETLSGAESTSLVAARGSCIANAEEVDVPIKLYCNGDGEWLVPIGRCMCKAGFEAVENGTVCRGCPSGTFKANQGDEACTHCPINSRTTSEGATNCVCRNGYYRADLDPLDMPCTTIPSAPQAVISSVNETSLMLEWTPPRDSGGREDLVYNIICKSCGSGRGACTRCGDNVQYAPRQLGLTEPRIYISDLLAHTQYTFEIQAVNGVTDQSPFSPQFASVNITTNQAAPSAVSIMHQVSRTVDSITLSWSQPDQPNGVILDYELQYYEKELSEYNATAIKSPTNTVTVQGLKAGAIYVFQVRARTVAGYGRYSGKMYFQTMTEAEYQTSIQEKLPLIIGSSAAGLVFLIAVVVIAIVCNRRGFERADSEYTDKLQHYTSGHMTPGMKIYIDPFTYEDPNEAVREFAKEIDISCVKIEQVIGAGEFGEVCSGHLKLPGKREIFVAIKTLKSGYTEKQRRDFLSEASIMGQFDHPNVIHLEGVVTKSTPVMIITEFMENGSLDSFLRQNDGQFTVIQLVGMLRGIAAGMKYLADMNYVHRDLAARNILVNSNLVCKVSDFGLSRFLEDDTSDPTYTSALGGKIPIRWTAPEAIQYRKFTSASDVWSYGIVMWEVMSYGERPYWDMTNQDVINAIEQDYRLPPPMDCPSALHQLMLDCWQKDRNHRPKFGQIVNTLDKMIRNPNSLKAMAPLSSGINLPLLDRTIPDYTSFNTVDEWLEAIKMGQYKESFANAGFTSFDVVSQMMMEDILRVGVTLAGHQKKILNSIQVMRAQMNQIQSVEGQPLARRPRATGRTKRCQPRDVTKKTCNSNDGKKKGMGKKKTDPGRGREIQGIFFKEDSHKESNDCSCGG

[6] = molecular target: Dual specificity mitogen-activated protein kinase kinase 1 (Homo sapiens, UniProt Q02750); assay: Selectivity interaction (KinomeScan (DiscoverX)) EUB0000618a MAP2K1; conditions: at 10 µM
[7] = molecular target: T3, Serine/threonine-protein kinase ULK3 (Homo sapiens) (UniProt Q6PHR2); assay: Selectivity interaction (ActivX KiNativ screen (kinase selectivity in THP-1 cell lysates)) EUB0000639a ULK3; assay type: subcellular; conditions: lysate, at 0.01 µM
T3 sequence (whole entry): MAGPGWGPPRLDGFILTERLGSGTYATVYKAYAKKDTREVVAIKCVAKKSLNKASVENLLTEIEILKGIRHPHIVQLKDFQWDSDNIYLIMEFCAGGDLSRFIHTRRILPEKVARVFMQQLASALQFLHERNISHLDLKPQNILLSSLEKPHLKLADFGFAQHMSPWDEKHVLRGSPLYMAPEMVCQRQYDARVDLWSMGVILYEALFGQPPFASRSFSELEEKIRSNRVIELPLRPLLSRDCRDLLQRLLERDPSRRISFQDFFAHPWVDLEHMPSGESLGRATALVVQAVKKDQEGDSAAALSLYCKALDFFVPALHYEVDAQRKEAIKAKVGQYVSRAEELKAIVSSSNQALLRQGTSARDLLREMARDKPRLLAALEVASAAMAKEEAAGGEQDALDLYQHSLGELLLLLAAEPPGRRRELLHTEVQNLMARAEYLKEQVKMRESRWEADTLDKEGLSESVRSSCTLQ

Chain of Ribosomal protein S6 kinase alpha-1 (Q15418 whole entry): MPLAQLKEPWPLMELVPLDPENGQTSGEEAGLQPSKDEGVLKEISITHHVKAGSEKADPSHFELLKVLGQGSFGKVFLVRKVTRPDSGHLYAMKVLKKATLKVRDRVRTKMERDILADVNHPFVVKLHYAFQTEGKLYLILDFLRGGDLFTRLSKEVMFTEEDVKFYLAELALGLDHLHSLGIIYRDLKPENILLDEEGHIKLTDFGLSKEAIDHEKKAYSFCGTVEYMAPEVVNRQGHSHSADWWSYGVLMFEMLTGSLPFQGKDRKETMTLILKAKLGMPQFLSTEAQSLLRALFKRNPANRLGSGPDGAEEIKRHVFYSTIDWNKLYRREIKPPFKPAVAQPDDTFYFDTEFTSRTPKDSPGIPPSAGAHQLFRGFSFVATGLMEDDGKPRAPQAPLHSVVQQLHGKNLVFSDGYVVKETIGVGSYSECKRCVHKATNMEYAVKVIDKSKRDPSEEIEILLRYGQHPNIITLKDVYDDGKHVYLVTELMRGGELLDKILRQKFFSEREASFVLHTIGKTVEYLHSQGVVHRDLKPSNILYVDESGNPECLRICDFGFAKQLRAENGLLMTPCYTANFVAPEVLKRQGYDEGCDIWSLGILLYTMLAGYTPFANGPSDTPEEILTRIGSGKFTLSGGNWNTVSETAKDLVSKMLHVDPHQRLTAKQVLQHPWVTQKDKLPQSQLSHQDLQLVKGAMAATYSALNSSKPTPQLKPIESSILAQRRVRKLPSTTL
Chain of Serine/threonine-protein kinase MRCK alpha (Homo sapiens) (Q5VT25 whole entry, canonical isoform): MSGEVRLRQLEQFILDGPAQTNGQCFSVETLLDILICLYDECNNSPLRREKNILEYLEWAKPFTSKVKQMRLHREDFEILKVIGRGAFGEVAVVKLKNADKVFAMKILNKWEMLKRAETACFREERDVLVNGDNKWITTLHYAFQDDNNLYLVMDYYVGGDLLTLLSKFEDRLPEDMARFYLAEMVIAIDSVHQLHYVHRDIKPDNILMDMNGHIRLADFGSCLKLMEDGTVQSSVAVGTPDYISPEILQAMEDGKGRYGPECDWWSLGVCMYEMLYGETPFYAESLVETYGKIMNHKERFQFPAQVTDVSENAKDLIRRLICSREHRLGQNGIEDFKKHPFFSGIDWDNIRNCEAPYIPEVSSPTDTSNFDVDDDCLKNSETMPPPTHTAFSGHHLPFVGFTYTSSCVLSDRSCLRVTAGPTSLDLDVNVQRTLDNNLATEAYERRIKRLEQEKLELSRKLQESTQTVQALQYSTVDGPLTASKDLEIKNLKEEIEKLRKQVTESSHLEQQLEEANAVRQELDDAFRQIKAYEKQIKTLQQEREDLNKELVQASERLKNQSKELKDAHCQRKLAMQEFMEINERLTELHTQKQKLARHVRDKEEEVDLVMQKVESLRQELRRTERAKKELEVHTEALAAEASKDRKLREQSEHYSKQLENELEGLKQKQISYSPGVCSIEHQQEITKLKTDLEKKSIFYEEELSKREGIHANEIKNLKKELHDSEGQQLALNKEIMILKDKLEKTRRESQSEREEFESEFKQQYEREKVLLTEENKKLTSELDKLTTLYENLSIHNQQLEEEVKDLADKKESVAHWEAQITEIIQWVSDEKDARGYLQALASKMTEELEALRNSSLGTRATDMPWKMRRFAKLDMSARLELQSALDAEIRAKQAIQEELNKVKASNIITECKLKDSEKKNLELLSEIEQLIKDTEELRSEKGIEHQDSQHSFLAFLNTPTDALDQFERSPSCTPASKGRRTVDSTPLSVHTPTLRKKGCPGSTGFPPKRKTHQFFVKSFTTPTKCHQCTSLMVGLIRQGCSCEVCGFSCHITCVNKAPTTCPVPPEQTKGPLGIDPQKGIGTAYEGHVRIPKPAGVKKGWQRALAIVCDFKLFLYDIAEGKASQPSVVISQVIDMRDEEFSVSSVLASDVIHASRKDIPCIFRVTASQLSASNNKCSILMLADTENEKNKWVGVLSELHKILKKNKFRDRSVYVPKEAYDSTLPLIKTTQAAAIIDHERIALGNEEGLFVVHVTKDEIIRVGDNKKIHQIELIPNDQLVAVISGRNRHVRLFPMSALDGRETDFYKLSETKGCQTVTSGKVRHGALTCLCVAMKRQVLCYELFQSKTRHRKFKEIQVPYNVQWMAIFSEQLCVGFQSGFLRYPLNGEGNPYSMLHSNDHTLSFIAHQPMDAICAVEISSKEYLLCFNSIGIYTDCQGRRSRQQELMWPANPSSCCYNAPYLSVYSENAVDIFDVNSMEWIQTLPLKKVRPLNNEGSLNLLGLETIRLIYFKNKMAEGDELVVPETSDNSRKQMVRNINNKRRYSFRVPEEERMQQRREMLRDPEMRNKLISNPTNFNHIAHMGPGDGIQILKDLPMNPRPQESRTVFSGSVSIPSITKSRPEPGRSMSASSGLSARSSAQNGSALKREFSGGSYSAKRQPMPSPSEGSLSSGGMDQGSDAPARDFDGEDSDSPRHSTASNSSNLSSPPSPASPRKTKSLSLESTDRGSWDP
Chain of Epidermal growth factor receptor (Homo sapiens), P00533 [UNDEFINED MUTATION] (P00533 whole entry, looked up, change not shown): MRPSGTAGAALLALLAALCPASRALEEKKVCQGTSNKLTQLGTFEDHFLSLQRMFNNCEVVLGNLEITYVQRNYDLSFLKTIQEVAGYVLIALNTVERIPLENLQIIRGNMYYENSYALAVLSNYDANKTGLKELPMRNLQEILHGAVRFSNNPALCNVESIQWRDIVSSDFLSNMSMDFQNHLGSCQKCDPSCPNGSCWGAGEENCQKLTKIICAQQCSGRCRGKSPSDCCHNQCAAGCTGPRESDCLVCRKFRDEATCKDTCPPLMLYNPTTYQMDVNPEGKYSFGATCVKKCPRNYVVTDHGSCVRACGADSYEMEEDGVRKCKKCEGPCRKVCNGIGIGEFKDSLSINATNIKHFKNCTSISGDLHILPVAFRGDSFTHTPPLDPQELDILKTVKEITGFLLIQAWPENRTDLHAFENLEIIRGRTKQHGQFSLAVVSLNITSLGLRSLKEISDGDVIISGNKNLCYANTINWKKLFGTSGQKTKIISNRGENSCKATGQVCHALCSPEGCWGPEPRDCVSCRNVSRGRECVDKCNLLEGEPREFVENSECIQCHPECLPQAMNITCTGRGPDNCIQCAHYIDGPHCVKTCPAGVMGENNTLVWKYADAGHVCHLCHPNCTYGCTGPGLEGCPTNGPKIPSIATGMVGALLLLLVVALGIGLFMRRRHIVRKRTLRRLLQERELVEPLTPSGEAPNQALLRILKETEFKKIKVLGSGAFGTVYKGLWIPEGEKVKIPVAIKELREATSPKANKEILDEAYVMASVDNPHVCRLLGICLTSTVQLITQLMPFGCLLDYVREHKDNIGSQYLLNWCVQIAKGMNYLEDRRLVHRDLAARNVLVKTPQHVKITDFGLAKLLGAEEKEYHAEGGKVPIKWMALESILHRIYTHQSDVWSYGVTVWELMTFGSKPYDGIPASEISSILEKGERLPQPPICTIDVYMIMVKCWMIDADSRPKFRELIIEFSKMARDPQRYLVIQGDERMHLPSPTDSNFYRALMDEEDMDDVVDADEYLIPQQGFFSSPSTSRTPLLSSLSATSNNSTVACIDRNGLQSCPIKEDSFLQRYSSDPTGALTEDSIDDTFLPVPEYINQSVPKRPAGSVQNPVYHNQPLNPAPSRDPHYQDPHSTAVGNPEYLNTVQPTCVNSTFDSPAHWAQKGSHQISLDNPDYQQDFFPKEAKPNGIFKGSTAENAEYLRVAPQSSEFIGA
Chain of Dual specificity mitogen-activated protein kinase kinase 1 (Q02750 whole entry): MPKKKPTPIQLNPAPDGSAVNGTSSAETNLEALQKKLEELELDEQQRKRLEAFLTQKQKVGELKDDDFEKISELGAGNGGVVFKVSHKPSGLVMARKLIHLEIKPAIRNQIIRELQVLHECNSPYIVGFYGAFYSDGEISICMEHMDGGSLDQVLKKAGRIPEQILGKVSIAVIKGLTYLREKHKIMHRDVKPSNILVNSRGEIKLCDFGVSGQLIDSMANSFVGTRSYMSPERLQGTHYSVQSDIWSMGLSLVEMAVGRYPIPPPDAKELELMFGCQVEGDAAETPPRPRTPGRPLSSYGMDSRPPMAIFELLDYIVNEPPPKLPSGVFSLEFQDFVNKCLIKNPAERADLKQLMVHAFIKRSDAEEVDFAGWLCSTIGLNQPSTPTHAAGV

SMILES: CN(C(=O)c1cnn2cccnc12)c1cc2c(cc1N1CCOCC1)C(=O)N(C[C@@H](F)C(C)(C)O)C2
- dTM [1]: 0 K

SMILES: Nc1cnc(N2CCc3cc(S(=O)(=O)Nc4c(F)cc(Cl)cc4F)cc(N4CCCC4=O)c32)nc1 [TP-020n]
- % of control [2]: 88%

SMILES: Cc1ccc(-c2ccc3c(ccc4sc5c(c43)NC[C@@H](C)NC5=O)n2)cn1
- % of inhibition [3]: 17%

SMILES: C=CC(=O)Nc1cccc(C(=O)Nc2ccc(Nc3cc(-c4[nH]c(SC)nc4C)ccn3)cc2)c1
- % of control [4]: 101%

SMILES: N#Cc1cccc(-c2c[nH]c3ncnc(N4CCOCC4)c23)c1
- % of control [5]: 92%

SMILES: O[C@H]1CC[C@H](Nc2ncc3nc(Nc4c(F)cc(F)cc4F)n([C@H]4CCOC4)c3n2)CC1
- % of control [6]: 100%

SMILES: CC[C@@H]1[C@H](F)C(=O)N[C@@H]1COc1nccc2cc(C(N)=O)c(OC)cc12 [ZIMLOVISERTIB]
- % of inhibition [7]: -8.9%

From ChEMBL document CHEMBL5465560, “Selectivity Literature for EUbOPEN Chemogenomic Library” (2024)
